Experimental data published in BindingDB's records for doi:10.1515/dmdi.1990.8.1-2.85 (Duphar, 1990).

Key:
Protachykinin-1 = Protachykinin-1 (Rattus norvegicus, UniProt P06767)
[1] = molecular target: Gastrin/cholecystokinin type B receptor (Rattus norvegicus, UniProt P30553)
Histamine H1 receptor = Histamine H1 receptor (Rattus norvegicus, UniProt P31390)
[2] = molecular target: Voltage-dependent calcium channel gamma-1 subunit (Homo sapiens, UniProt Q06432)
[3] = molecular target: 5-hydroxytryptamine receptor 3A (Mus musculus, UniProt P23979)
Sequence of 5-hydroxytryptamine receptor 3A (P23979 as listed by the source): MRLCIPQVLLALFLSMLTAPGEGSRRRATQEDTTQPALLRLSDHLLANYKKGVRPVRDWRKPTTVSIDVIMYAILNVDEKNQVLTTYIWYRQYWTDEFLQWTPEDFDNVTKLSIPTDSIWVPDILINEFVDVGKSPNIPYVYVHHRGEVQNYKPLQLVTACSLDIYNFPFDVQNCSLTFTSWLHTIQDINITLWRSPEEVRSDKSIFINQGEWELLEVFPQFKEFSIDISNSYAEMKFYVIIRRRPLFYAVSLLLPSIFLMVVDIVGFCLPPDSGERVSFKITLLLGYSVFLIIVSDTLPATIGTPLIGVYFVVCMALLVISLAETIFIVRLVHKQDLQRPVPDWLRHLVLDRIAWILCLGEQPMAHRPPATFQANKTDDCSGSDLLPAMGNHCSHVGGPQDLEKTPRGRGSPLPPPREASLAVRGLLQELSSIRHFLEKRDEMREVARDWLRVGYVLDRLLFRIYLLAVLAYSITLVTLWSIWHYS

[4] = molecular target: Kappa-type opioid receptor (Rattus norvegicus, UniProt P34975)
Sequence of Kappa-type opioid receptor (P34975 whole entry): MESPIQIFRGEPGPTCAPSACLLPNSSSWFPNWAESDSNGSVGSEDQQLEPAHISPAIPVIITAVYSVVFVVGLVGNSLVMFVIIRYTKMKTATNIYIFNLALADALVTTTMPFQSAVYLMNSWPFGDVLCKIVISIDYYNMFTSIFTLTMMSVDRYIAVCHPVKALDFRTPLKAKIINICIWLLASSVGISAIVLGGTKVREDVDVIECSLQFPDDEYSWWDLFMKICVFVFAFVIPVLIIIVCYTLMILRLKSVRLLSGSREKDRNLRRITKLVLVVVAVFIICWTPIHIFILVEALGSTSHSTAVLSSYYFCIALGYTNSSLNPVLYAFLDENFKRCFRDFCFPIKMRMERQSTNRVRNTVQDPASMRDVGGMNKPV

D(1A) dopamine receptor = D(1A) dopamine receptor (Rattus norvegicus, UniProt P18901)
Sequence of D(1A) dopamine receptor (P18901 whole entry): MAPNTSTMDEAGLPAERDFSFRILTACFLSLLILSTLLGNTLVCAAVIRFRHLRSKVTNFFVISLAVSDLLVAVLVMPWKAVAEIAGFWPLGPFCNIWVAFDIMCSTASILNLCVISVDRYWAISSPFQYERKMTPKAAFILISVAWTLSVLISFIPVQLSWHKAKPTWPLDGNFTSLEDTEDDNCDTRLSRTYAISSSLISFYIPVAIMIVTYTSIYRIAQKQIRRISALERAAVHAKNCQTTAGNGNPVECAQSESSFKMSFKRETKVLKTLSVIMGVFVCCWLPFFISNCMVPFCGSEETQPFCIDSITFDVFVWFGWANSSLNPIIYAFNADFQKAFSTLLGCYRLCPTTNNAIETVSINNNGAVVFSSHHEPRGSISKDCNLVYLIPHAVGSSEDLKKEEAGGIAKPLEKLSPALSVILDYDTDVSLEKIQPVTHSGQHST

[5] = molecular target: Delta-type opioid receptor (Rattus norvegicus, UniProt P33533)
[6] = molecular target: Muscarinic acetylcholine receptor M2 (Rattus norvegicus, UniProt P10980)
[7] = molecular target: Pro-thyrotropin-releasing hormone (Rattus norvegicus, UniProt P01150)
[8] = molecular target: Calcium release-activated calcium channel protein 1 (Homo sapiens, UniProt Q96D31)
[9] = molecular target: 5-hydroxytryptamine receptor 1B (Rattus norvegicus, UniProt P28564)
[10] = molecular target: Gamma-aminobutyric acid receptor subunit alpha-1 (Rattus norvegicus, UniProt P62813)
D(2) dopamine receptor = D(2) dopamine receptor (Rattus norvegicus, UniProt P61169)
Sequence of D(2) dopamine receptor (P61169 whole entry): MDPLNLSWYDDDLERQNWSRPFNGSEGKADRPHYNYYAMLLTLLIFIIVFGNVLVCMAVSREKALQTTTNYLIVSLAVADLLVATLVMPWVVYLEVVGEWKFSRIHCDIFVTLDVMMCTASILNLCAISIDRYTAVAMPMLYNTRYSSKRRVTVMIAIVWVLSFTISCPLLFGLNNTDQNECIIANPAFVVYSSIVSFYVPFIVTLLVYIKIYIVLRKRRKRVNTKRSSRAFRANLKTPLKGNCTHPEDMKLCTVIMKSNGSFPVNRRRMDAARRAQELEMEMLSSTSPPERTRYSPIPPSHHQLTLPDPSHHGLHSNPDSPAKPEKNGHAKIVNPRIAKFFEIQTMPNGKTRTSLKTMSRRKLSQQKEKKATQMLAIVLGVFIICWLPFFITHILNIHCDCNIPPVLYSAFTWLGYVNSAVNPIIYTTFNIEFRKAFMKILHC

[11] = molecular target: Alpha-2C adrenergic receptor (Rattus norvegicus, UniProt P22086)
Sequence of Alpha-2C adrenergic receptor (P22086 whole entry): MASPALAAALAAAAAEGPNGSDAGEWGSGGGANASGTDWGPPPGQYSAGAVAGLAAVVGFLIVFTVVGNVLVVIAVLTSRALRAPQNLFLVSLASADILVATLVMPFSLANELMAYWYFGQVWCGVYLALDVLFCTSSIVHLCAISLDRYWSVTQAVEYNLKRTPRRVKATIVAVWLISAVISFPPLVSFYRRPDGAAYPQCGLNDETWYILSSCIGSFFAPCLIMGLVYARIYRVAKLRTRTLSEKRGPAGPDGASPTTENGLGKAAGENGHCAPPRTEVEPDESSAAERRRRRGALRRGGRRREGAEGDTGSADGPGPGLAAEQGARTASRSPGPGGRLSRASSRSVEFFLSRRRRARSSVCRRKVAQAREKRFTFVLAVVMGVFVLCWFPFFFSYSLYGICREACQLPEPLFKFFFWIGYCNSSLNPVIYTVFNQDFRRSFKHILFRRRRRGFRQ

[12] = molecular target: 5-hydroxytryptamine receptor 2C (Sus scrofa, UniProt G7ZKZ7)
[13] = molecular target: 5-hydroxytryptamine receptor 2A (Rattus norvegicus, UniProt P14842)
Sequence of 5-hydroxytryptamine receptor 2A (P14842 whole entry): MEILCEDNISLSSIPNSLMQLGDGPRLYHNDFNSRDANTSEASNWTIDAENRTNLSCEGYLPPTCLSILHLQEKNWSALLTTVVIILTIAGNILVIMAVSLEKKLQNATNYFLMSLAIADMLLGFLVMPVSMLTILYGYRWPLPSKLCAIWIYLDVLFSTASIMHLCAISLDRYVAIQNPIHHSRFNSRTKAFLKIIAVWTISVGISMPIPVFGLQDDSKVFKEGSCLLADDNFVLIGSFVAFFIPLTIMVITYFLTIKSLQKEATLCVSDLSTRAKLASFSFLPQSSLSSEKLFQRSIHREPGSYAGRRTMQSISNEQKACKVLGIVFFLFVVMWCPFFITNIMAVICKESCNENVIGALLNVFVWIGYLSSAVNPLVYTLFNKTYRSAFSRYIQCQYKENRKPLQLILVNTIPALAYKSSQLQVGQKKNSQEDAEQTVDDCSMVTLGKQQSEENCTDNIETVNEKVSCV

[14] = molecular target: Muscarinic acetylcholine receptor M1 (Rattus norvegicus, UniProt P08482)
Sequence of Muscarinic acetylcholine receptor M1 (P08482 whole entry): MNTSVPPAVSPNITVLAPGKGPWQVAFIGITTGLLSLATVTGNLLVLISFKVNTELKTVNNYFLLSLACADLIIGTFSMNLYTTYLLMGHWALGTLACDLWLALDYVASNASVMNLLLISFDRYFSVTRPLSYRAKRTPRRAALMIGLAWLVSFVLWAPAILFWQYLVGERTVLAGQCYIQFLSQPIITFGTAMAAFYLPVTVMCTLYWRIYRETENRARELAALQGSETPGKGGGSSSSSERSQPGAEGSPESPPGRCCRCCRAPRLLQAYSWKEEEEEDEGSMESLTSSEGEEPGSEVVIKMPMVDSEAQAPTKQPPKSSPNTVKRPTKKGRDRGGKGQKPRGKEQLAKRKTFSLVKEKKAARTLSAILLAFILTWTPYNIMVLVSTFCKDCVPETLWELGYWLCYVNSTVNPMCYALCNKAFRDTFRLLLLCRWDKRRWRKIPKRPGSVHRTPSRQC

[15] = molecular target: Cysteinyl leukotriene receptor 1 (Cavia porcellus, UniProt Q2NNR5)
[16] = molecular target: Muscarinic acetylcholine receptor M3 (Rattus norvegicus, UniProt P08483)
Mu-type opioid receptor = Mu-type opioid receptor (Rattus norvegicus, UniProt P33535)
[17] = molecular target: Glycine amidinotransferase, mitochondrial (Rattus norvegicus, UniProt P50442)
[18] = molecular target: 5-hydroxytryptamine 1D receptor (Bos taurus, UniProt Q8MI13)
Sequence of 5-hydroxytryptamine 1D receptor (Q8MI13 whole entry): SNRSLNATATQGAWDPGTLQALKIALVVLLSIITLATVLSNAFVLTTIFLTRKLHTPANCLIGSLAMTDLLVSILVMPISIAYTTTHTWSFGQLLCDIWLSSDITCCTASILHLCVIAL

[19] = molecular target: Sigma non-opioid intracellular receptor 1 (Rattus norvegicus, UniProt Q9R0C9)
Sequence of Sigma non-opioid intracellular receptor 1 (Q9R0C9 whole entry): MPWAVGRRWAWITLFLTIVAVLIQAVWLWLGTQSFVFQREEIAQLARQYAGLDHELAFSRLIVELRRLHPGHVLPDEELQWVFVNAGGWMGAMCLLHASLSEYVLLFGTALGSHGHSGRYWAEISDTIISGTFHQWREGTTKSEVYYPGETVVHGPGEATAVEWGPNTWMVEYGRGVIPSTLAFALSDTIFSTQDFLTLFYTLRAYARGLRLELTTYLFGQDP

[20] = molecular target: Beta-1 adrenergic receptor (Rattus norvegicus, UniProt P18090)
Sequence of Beta-1 adrenergic receptor (P18090 whole entry): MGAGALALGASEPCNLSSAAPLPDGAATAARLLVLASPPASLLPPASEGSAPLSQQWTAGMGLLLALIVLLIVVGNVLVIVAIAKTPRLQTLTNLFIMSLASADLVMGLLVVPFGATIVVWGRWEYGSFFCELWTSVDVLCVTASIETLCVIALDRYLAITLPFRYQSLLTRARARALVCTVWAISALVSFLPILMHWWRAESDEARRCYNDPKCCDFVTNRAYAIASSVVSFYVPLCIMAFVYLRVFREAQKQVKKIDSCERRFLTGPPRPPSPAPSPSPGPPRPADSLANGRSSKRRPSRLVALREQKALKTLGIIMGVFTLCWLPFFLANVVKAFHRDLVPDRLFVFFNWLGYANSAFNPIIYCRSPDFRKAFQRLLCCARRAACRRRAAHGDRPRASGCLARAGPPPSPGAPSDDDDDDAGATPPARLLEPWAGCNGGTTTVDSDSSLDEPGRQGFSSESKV

[21] = molecular target: Glutamate receptor ionotropic, NMDA 1 (Rattus norvegicus, UniProt P35439)
[22] = molecular target: Alpha-1A adrenergic receptor (Rattus norvegicus, UniProt P43140)

Sequence of Voltage-dependent calcium channel gamma-1 subunit (Q06432 whole entry): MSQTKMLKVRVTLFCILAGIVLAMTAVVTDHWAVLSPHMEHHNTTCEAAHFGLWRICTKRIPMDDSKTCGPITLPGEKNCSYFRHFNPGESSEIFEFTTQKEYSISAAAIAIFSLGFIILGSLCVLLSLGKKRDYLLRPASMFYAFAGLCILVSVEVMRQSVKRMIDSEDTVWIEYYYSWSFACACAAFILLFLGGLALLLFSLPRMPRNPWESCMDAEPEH
Sequence of Gastrin/cholecystokinin type B receptor (P30553 whole entry): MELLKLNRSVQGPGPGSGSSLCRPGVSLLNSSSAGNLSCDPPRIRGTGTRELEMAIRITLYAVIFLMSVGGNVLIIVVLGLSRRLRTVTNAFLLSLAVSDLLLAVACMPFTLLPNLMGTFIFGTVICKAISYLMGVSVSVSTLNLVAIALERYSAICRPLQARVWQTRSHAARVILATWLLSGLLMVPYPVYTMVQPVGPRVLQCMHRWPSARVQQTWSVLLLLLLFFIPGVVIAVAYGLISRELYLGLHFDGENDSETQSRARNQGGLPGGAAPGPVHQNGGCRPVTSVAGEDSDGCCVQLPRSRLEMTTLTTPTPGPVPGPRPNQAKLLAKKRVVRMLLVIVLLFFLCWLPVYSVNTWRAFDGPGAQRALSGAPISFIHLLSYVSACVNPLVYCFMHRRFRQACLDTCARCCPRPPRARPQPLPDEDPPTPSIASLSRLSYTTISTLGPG

c1cc2c(c(N3CCNCC3)c1)OCCO2 [1-(2,3-Dihydro-benzo[1,4]dioxin-5-yl)-piperazine]
Ki (Protachykinin-1): > 10 µM
Ki [1]: > 10 µM
Ki (Histamine H1 receptor): 3.9 µM
Ki [2]: > 10 µM
Ki [3]: 1.3 µM
Ki [4]: > 10 µM
Ki (D(1A) dopamine receptor): > 10 µM
Ki [5]: > 10 µM
Ki [6]: > 10 µM
Ki [7]: > 10 µM
Ki [8]: > 10 µM
Ki [9]: 0.052 µM
Ki [10]: > 10 µM
Ki (D(2) dopamine receptor): 1.1 µM
Ki [11]: 3.1 µM
Ki [12]: 0.081 µM
Ki [13]: 1.7 µM
Ki [14]: > 10 µM
Ki [15]: > 10 µM
Ki [16]: > 10 µM
Ki (Mu-type opioid receptor): > 10 µM
Ki [17]: > 10 µM
Ki [18]: 0.39 µM
Ki [19]: 9.3 µM
Ki [20]: 0.42 µM
Ki [21]: > 10 µM
Ki [22]: 0.79 µM
